# Data as given in patent US5961892A, “Polyalkoxylated naphthopyrans” (PPG Industries Ohio, Inc., priority 1998, dated 1999).
# Legend:
# [1] = UV-Visible absorption (lambda max) of photochromic test square polymerizates in Varian Cary 3 UV-Visible spectrophotometer; format: physicochemical; settings: 1.5×10-3 molal; for (λ) max (VIS): maximum absorption of the activated (colored) form in the visible spectrum, test square; for (λ) max (UV): wavelength in the ultraviolet range closest to the visible spectrum at which absorption occurs, test square of BPA 2EO DMA/poly(ethylene glycol) 600 dimethacrylate
# Method: (§1) Testing was done with the photochromic compounds described in Examples 1 through 4 and Comparative Examples 1 through 3 in the following manner. A quantity of photochromic compound calculated to yield a 1.5×10-3 molal solution was added to a flask containing 50 grams of a monomer blend of 4 parts ethoxylated bisphenol A dimethacrylate (BPA 2EO DMA), 1 part poly(ethylene glycol) 600 dimethacrylate, and 0.033 weight percent 2,2'-azobis(2-methyl propionitrile) (AIBN). The photochromic compound was dissolved into the monomer blend by stirring and gentle heating, if necessary. After a clear solution was obtained, it was poured into a flat sheet mold having the interior dimensions of 2.2 mm×6 inches (15.24 cm)×6 inches (15.24 cm). The mold was sealed and placed in a horizontal air flow, programmable oven programmed to increase the temperature from 40° C. to 95° C. over a 5 hour interval, hold the temperature at 95° C. for 3 hours, lower it to 60° C. over a 2 hour interval and then hold it at 60° C. for 16 hours. After the mold was opened, the polymer sheet was cut using a diamond blade saw into 2 inch (5.1 centimeters) test squares.
# The ΔOD/Min, which represents the sensitivity of the photochromic compound's response to UV light, was measured over the first five (5) seconds of UV exposure, then expressed on a per minute basis. The saturation optical density (ΔOD@ Saturation) was taken under identical conditions as the ΔOD/Min, except UV exposure was continued for 15 minutes. The lambda max (Vis) is the wavelength in nanometers (nm) in the visible spectrum at which the maximum absorption of the activated (colored) form of the photochromic compound in a test square occurs. The lambda max (Vis) wavelength was determined by testing the photochromic test square polymerizates of Part A in a Varian Cary 3 UV-Visible spectrophotometer. The lambda (λ) max (UV) is the wavelength in nanometers in the ultraviolet range closest to the visible spectrum at which the absorption of the photochromic compound occurs. This absorption was also determined with the same spectrophotometer. The Bleach Rate (T 1/2) is the time interval in seconds for the absorbance of the activated form of the photochromic compound in the test squares to reach one half the highest absorbance at room temperature (72° F., 22.2° C.) after removal of the source of activating light.
# [2] = Photochromic response of test squares on optical bench (sensitivity, saturation optical density, bleach rate); format: physicochemical; settings: for decrease in T 1/2 versus corresponding Comparative Example: % less than corresponding CE (Example 1 vs CE1; average of Examples 2 and 4 vs CE2; Example 3 vs CE3); for ΔOD@ Saturation: UV exposure continued for 15 minutes; for ΔOD@ Saturation / ΔOD/MIN Sensitivity: 72° F. (22.2° C.); for ΔOD/MIN Sensitivity: first five (5) seconds of UV exposure, expressed per minute, 0.15 to 0.20 mW/cm2; for Bleach Rate (T 1/2): time for absorbance of activated form to reach one half the highest absorbance at room temperature (72° F., 22.2° C.) after removal of activating light
# Method: as §1
# The photochromic test squares prepared in Part A were tested for photochromic response on an optical bench. Prior to testing on the optical bench, the photochromic test squares were conditioned, i.e., exposed to 365 nanometer ultraviolet light for about 15 minutes to activate the photochromic compounds and then placed in a 76° C. oven for about 15 minutes to bleach or inactivate the photochromic compounds. The test squares were then cooled to room temperature, exposed to fluorescent room lighting for at least 2 hours and then kept covered for at least 2 hours prior to testing on an optical bench maintained at 72° F. (22.2° C.). The bench was fitted with a 250 watt Xenon arc lamp, a remote controlled shutter, a copper sulfate bath acting as a heat sink for the arc lamp, a Schott WG-320 nm cut-off filter which removes short wavelength radiation; neutral density filter(s) and a sample holder in which the square to be tested was inserted. The power output of the optical bench, i.e., the dosage of light that the sample lens would be exposed to, was calibrated with a photochromic test square used as a reference standard. […] The UV-A detector was placed into the sample holder and the light output was measured. Adjustments to the power output were made by increasing or decreasing the lamp wattage or by adding or removing neutral density filters in the light path.
# A monitoring, collimated beam of light from a tungsten lamp was passed through the square at a small angle (approximately 30°) normal to the square. After passing through the square, the light from the tungsten lamp was directed to a detector through Spectral Energy Corp. GM-200 monochromator set at the previously determined visible lambda max of the photochromic compound being measured. The output signals from the detector were processed by a radiometer.
# Change in optical density (ΔOD) was determined by inserting a test square in the bleached state into the sample holder, adjusting the transmittance scale to 100%, opening the shutter from the Xenon lamp to provide ultraviolet radiation to change the test square from the bleached state to an activated (i.e., darkened) state, measuring the transmittance in the activated state, and calculating the change in optical density according to the formula: ΔOD=log(100/% Ta), where % Ta is the percent transmittance in the activated state and the logarithm is to the base 10.
# The ΔOD/Min, which represents the sensitivity of the photochromic compound's response to UV light, was measured over the first five (5) seconds of UV exposure, then expressed on a per minute basis. The saturation optical density (ΔOD@ Saturation) was taken under identical conditions as the ΔOD/Min, except UV exposure was continued for 15 minutes. […]
Compound,(λ) max (VIS) [1] [nm],(λ) max (UV) [1] [nm],decrease in T 1/2 versus corresponding Comparative Example [2] [%],"Sensitivity, units less than corresponding Comparative Example ([2]; Example 1 versus Comparative Example 1)",ΔOD@ Saturation [2],ΔOD/MIN Sensitivity [2],Bleach Rate (T 1/2) [2] [min]
"2,2-bis(4-methoxyphenyl)-5-methoxycarbonyl-6-methoxy(polyethoxy)-2H-naphtho[1,2-b]pyran [Example 1]",511,353,24,more than 0.02 units,0.48,0.19 ΔOD/MIN,1.72
"COC(=O)c1c2c(c3ccccc3c1OC)OC(c1ccc(OC)cc1)(c1ccc(OC)cc1)C=C2 [CE1, 2,2-bis(4-methoxyphenyl)-5-methoxycarbonyl-6-methoxy-2H-naphtho[1,2-b]pyran, reference compound]",512,353,,,0.77,0.29 ΔOD/MIN,2.27
"COC(=O)c1c2c(c3ccccc3c1-c1ccccc1)OC(c1ccccc1)(c1ccccc1)C=C2 [CE2, 2,2-diphenyl-5-methoxycarbonyl-6-phenyl-2H-naphtho[1,2-b]pyran, reference compound]",486,348,,,0.80,0.28 ΔOD/MIN,3.83
"COC(=O)c1c2c(c3ccccc3c1C)OC(c1ccccc1)(c1ccccc1)C=C2 [CE3, 2,2-diphenyl-5-methoxycarbonyl-6-methyl-2H-naphtho[1,2b]pyran, reference compound]",476,349,,,1.17,0.23 ΔOD/MIN,7.75
"COCCOCCOC(=O)c1c2c(c3ccccc3c1-c1ccccc1)OC(c1ccccc1)(c1ccccc1)C=C2 [Example 2, 2,2-diphenyl-5-(2-(2-methoxyethoxy)ethoxycarbonyl)-6-phenyl[2H]naphtho[1,2-b]pyran]",486,348,,,0.67,0.26 ΔOD/MIN,2.78
"COCCOCCOCCOC(=O)c1c2c(c3ccccc3c1C)OC(c1ccccc1)(c1ccccc1)C=C2 [Example 3, 2,2-diphenyl-5-(2-(2-(2-methoxyethoxy)ethoxy)ethoxycarbonyl)-6-methyl-2H-naphtho[1,2b]pyran]",475,349,42,,0.86,0.24 ΔOD/MIN,4.5
"COCCOCCOCCOC(=O)c1c2c(c3ccccc3c1-c1ccccc1)OC(c1ccccc1)(c1ccccc1)C=C2 [Example 4, 2,2-diphenyl-5-(2-(2-(2-methoxyethoxy)ethoxy)ethoxy-carbonyl)-6-phenyl-2H-naphtho[1,2-b]pyran]",486,348,,,0.67,0.28 ΔOD/MIN,2.75
